Laboratory results published in the NIST ThermoML archive (doi:10.1016/j.jct.2012.02.028).

Experiment: molar heat capacity at constant pressure
Conditions: 101.33 kPa, Crystal, Vacuum adiabatic calorimetry

O=C([O-])[O-].[Zn+2] [zinc(II) carbonate]
Conditions | molar heat capacity at constant pressure [J/K/mol]
4.397 K | 0.009408
4.399 K | 0.007545
4.757 K | 0.006774
4.774 K | 0.006545
5 K | 0.00773
5.101 K | 0.008038
5.155 K | 0.008164
5.346 K | 0.01084
5.423 K | 0.0117
5.582 K | 0.01132
5.688 K | 0.00813
5.816 K | 0.01409
5.946 K | 0.01317
6.06 K | 0.0142
6.285 K | 0.01382
6.398 K | 0.01585
6.723 K | 0.01601
6.824 K | 0.01961
7.156 K | 0.02326
7.254 K | 0.02331
7.601 K | 0.02683
7.692 K | 0.02785
8.054 K | 0.03096
8.134 K | 0.03204
8.509 K | 0.03516
8.576 K | 0.03774
8.961 K | 0.04103
9.021 K | 0.04305
9.412 K | 0.0479
9.468 K | 0.05013
9.862 K | 0.05547
9.915 K | 0.05829
10 K | 0.05961
10.54 K | 0.07294
10.59 K | 0.07477
11.45 K | 0.09358
11.5 K | 0.09604
12.37 K | 0.1193
12.41 K | 0.1215
13.29 K | 0.1517
13.33 K | 0.153
14.22 K | 0.1928
14.26 K | 0.193
15 K | 0.2346
15.15 K | 0.245
15.18 K | 0.2446
16.08 K | 0.2992
16.12 K | 0.2986
17.02 K | 0.3595
17.05 K | 0.3608
17.97 K | 0.4461
17.99 K | 0.4463
18.91 K | 0.535
18.93 K | 0.5407
19.85 K | 0.6305
19.88 K | 0.6346
20 K | 0.6547
21.27 K | 0.8212
21.29 K | 0.8243
23.14 K | 1.091
23.17 K | 1.096
25 K | 1.427
25.06 K | 1.439
26.95 K | 1.841
28.85 K | 2.31
30 K | 2.613
30.77 K | 2.836
32.69 K | 3.401
34.62 K | 4.038
35 K | 4.162
36.33 K | 4.607
36.56 K | 4.711
38.5 K | 5.446
38.58 K | 5.466
40 K | 6.03
40.52 K | 6.253
42.46 K | 7.047
44.41 K | 7.863
45 K | 8.122
46.36 K | 8.699
48.32 K | 9.572
50 K | 10.39
50.28 K | 10.5
52.24 K | 11.48
54.21 K | 12.47
55 K | 12.79
56.18 K | 13.4
58.15 K | 14.28
60 K | 15.28
60.13 K | 15.34
62.1 K | 16.36
64.08 K | 17.36
65 K | 17.8
66.07 K | 18.36
68.03 K | 19.3
69.94 K | 20.27
70 K | 20.32
72.36 K | 21.49
75 K | 22.79
75.35 K | 22.97
78.35 K | 24.46
79.92 K | 25.19
80 K | 25.24
83.21 K | 26.77
85 K | 27.63
86.23 K | 28.21
89.26 K | 29.61
90 K | 29.96
92.3 K | 31
95 K | 32.21
95.35 K | 32.37
98.41 K | 33.68
100 K | 34.37
101.48 K | 34.99
104.55 K | 36.23
105 K | 36.41
107.64 K | 37.47
110 K | 38.38
110.74 K | 38.65
113.84 K | 39.83
115 K | 40.26
116.95 K | 40.98
120 K | 42.07
120.07 K | 42.09
123.2 K | 43.18
126.34 K | 44.26
129.51 K | 45.31
130 K | 45.47
132.66 K | 46.33
135.83 K | 47.34
139 K | 48.32
140 K | 48.63
142.19 K | 49.32
145.38 K | 50.23
148.58 K | 51.14
150 K | 51.6
151.79 K | 52.15
155.01 K | 53.02
158.25 K | 53.93
160 K | 54.36
161.49 K | 54.75
164.72 K | 55.64
167.92 K | 56.45
170 K | 56.93
171.08 K | 57.17
174.21 K | 57.91
177.3 K | 58.72
180 K | 59.33
180.39 K | 59.37
183.43 K | 60.04
186.44 K | 60.81
189.44 K | 61.49
190 K | 61.57
192.42 K | 62.17
195.37 K | 62.73
198.3 K | 63.33
200 K | 63.68
201.2 K | 63.91
204.09 K | 64.5
206.97 K | 65.04
209.83 K | 65.68
210 K | 65.75
212.67 K | 66.32
215.51 K | 66.8
218.32 K | 67.43
220 K | 67.73
221.12 K | 67.91
223.9 K | 68.47
226.71 K | 68.96
229.46 K | 69.59
230 K | 69.62
232.21 K | 70.19
234.93 K | 70.69
237.65 K | 71.17
240 K | 71.45
240.37 K | 71.48
243.07 K | 71.89
245.76 K | 72.45
248.45 K | 72.82
250 K | 73.2
251.12 K | 73.38
253.79 K | 73.81
256.45 K | 74.15
259.09 K | 74.66
260 K | 74.88
261.74 K | 75.21
264.38 K | 75.75
267.01 K | 76.21
269.71 K | 76.37
270 K | 76.38
272.34 K | 76.67
273.15 K | 76.84
274.96 K | 77.02
277.57 K | 77.36
280 K | 77.83
280.18 K | 77.77
282.78 K | 78.17
285.37 K | 78.56
287.95 K | 78.94
290 K | 79.24
290.53 K | 79.31
293.11 K | 79.67
295.68 K | 80.03
298.15 K | 80.36
298.24 K | 80.38
300 K | 80.6
300.8 K | 80.74
303.36 K | 81.1
305.91 K | 81.42
308.46 K | 81.77
310 K | 81.91
311.15 K | 82.06
313.7 K | 82.4
316.26 K | 82.71
318.8 K | 83
320 K | 83.17
321.35 K | 83.28
